Test systems include U251 CNS; MOLT-4 leukemia; OVCAR-4 ovarian; SN12C renal; ACHN renal; CAKI-1 renal; OVCAR-3 ovarian; DU-145 prostate; HS 578T breast; NCI/ADR-RES ovarian.
Holding throughout (experiment): NCI-60 cell line screen, 48 h

SMILES strings stand for the structures.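 Results reflect a 48-hour exposure of cells in 96-well plates to compound at five concentrations. Here, GI50 denotes the concentration required for 50% inhibition of growth. The concentration for full growth arrest is given as TGI.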 Bounds are passed on as bounds.

For the compound `CS(=O)(=O)NNS(=O)(=O)c1ccccc1`, the TGI in the experiment with U251 CNS, in the experiment on MOLT-4 leukemia, with OVCAR-4 ovarian, in the experiment with SN12C renal, with ACHN renal and with CAKI-1 renal was greater than 100 µM throughout.
Turning to `CC(=O)NC1C(OCc2ccccc2)OC(CO)C(O)C1OC(C)C(=O)N[C@@H](C)C(=O)N[C@H](CCC(=O)OCCNc1c2ccccc2nc2cccc([N+](=O)[O-])c12)C(N)=O` (some centres undefined), the TGI was greater than 0.1 µM with MOLT-4 leukemia; 0.0116 µM in the experiment with OVCAR-4 ovarian; 0.0313 µM in the experiment on SN12C renal; 0.00427 µM with OVCAR-3 ovarian; 0.0071 µM with ACHN renal.
Consider `NC(=O)c1c([N+](=O)[O-])cc(C(F)(F)F)cc1[N+](=O)[O-]`, for which the TGI in the experiment with U251 CNS is greater than 100 µM; in the experiment on MOLT-4 leukemia, greater than 100 µM; in the experiment on OVCAR-4 ovarian, greater than 100 µM; in the experiment on SN12C renal, greater than 100 µM; in the experiment with OVCAR-3 ovarian, 63.3 µM; with ACHN renal, greater than 100 µM. This compound showed a TGI in the experiment with CAKI-1 renal greater than 100 µM.
In the case of `Cc1ccc(NC(=O)C2C(=O)N(c3ccc(C)c(C)c3)C(=O)/C2=N\NC(N)=O)cc1C` (centres undefined), the TGI in the experiment on U251 CNS, with MOLT-4 leukemia, in the experiment with OVCAR-4 ovarian, in the experiment on SN12C renal, with OVCAR-3 ovarian and with ACHN renal was greater than 100 µM each time. The same compound registered a TGI in the experiment with CAKI-1 renal greater than 100 µM.
Take `O=S(=O)(O)c1ccc(N=Nc2nc(C(F)(F)F)c(C(F)(F)F)[nH]2)cc1`: the TGI in the experiment on U251 CNS was greater than 100 µM; in the experiment with MOLT-4 leukemia it was greater than 100 µM; with OVCAR-4 ovarian it was 50.4 µM; with SN12C renal it was greater than 100 µM; in the experiment with OVCAR-3 ovarian it was greater than 100 µM; with ACHN renal, greater than 100 µM. Further, the TGI in the experiment with CAKI-1 renal amounted to 89.4 µM.
In the case of `Cc1noc2c1C(=O)CCC2`, the TGI with MOLT-4 leukemia, with OVCAR-4 ovarian, with SN12C renal, in the experiment with OVCAR-3 ovarian, with ACHN renal and in the experiment on CAKI-1 renal was greater than 100 µM throughout.
As for `CCCCC(C)C(OC(=O)CC(CC(=O)O)C(=O)O)C(CC(C)CC(O)CCCCC(O)CC(O)C(C)N)OC(=O)CC(CC(=O)O)C(=O)O` (centres undefined), the TGI in the experiment on U251 CNS, in the experiment with MOLT-4 leukemia, with OVCAR-4 ovarian, in the experiment with SN12C renal, with OVCAR-3 ovarian and with ACHN renal was greater than 100 µM in each case. Moreover, the TGI in the experiment with CAKI-1 renal is greater than 100 µM.
Turning to `O=C(CSc1ncn[nH]1)C[P+](c1ccccc1)(c1ccccc1)c1ccccc1`, the TGI in the experiment on MOLT-4 leukemia, in the experiment on OVCAR-4 ovarian, with SN12C renal, in the experiment with OVCAR-3 ovarian, in the experiment on ACHN renal and in the experiment with CAKI-1 renal was greater than 100 µM throughout.
As to `ON(Cc1ccccc1)C(=S)c1ccccc1`, the TGI in the experiment on U251 CNS is 61 µM; in the experiment on MOLT-4 leukemia, greater than 41 µM; in the experiment with OVCAR-4 ovarian it was greater than 100 µM; in the experiment with SN12C renal it was greater than 100 µM; with OVCAR-3 ovarian, greater than 67 µM; in the experiment on DU-145 prostate, greater than 100 µM. Moreover, the TGI in the experiment on ACHN renal was 62.1 µM; in the experiment on HS 578T breast, greater than 100 µM.
Regarding `C#CC[N+](C)(CC#C)CC#C`, the TGI with MOLT-4 leukemia, in the experiment on OVCAR-4 ovarian, with SN12C renal, in the experiment with OVCAR-3 ovarian, with ACHN renal and in the experiment with CAKI-1 renal was greater than 100 µM each time.
Consider `Cc1cccc(C(C)C)c1N1C(=O)C(=O)C(c2nc3ccccc3o2)C(=O)C1=O`, for which the TGI in the experiment on U251 CNS is greater than 100 µM; with MOLT-4 leukemia it was 63.8 µM; in the experiment with OVCAR-4 ovarian it was greater than 100 µM; with SN12C renal it was greater than 100 µM; in the experiment on OVCAR-3 ovarian, greater than 100 µM; in the experiment with ACHN renal it was greater than 100 µM. For the same compound, the TGI with CAKI-1 renal is greater than 100 µM.
With `NC(=O)c1ccccc1NC(=O)C(=O)Cc1nc2ccccc2[nH]c1=O`, the TGI with U251 CNS, with MOLT-4 leukemia, with OVCAR-4 ovarian, in the experiment with OVCAR-3 ovarian, with ACHN renal and in the experiment on CAKI-1 renal was greater than 100 µM each time.
For the compound `O=C(O)C1CCCCC1c1c2ccc(=O)c(O)c-2oc2c(O)c(O)ccc12` (centres undefined), the TGI in the experiment with U251 CNS is 24.8 µM; in the experiment with MOLT-4 leukemia it was 84.4 µM; with OVCAR-4 ovarian it was 64 µM; in the experiment on SN12C renal, 39.3 µM; in the experiment with OVCAR-3 ovarian, greater than 100 µM; in the experiment on DU-145 prostate, greater than 100 µM. The TGI is 60.1 µM with ACHN renal, greater than 100 µM in the experiment with HS 578T breast and greater than 100 µM in the experiment with CAKI-1 renal.
On to `O=[N+]([O-])c1ccc(-c2noc(-c3ccc(Cl)cc3)c2C2=NCCN2)cc1`, for which the TGI with U251 CNS, with MOLT-4 leukemia, in the experiment on OVCAR-4 ovarian, with SN12C renal, with OVCAR-3 ovarian and in the experiment on ACHN renal was greater than 100 µM each time. For the same compound, the TGI with CAKI-1 renal was greater than 100 µM.
Consider `CC(=O)c1c(CN(C)c2ccccc2)n([O-])c2ccccc2[n+]1=O`, for which the GI50 was 29.7 µM in the experiment with U251 CNS; 23.9 µM in the experiment with MOLT-4 leukemia; 19.5 µM in the experiment on NCI/ADR-RES ovarian; 29 µM with OVCAR-4 ovarian; 24.9 µM in the experiment on SN12C renal; 42.1 µM in the experiment on DU-145 prostate. Besides, the GI50 in the experiment on ACHN renal is 32.9 µM; with HS 578T breast, 50.7 µM. For the same compound, the TGI is greater than 100 µM in the experiment with U251 CNS; greater than 100 µM in the experiment with MOLT-4 leukemia; 55.9 µM in the experiment with NCI/ADR-RES ovarian; greater than 100 µM with OVCAR-4 ovarian; 87.4 µM in the experiment on SN12C renal; greater than 100 µM in the experiment on DU-145 prostate. For the same compound, the TGI with ACHN renal and in the experiment on HS 578T breast was greater than 100 µM in each case.
As for `CN(C)C(=Nc1nc(=[N+](C)C)ss1)N(C)C`, the TGI in the experiment on U251 CNS, in the experiment with MOLT-4 leukemia, with OVCAR-4 ovarian, in the experiment with SN12C renal, in the experiment with ACHN renal and with CAKI-1 renal was greater than 100 µM throughout.
Regarding `O=C(CC1(O)C(=O)Nc2ccc(Br)cc21)c1ccc(Cl)cc1Cl` (centres undefined), the TGI with U251 CNS was greater than 100 µM; in the experiment on MOLT-4 leukemia, 68 µM; in the experiment with OVCAR-4 ovarian it was greater than 100 µM; in the experiment on SN12C renal it was greater than 100 µM; in the experiment with OVCAR-3 ovarian, greater than 100 µM; in the experiment with ACHN renal it was greater than 100 µM.
Take `O=[N+]([O-])c1ccc(Cl)c(C2CC(c3cccc4ccccc34)=Nc3ccccc3S2)c1` (centres undefined): the TGI with U251 CNS was 65.9 µM; in the experiment on MOLT-4 leukemia, greater than 56.9 µM; in the experiment on OVCAR-4 ovarian, greater than 100 µM; in the experiment with SN12C renal, greater than 59.4 µM; in the experiment with OVCAR-3 ovarian, 51.2 µM; with ACHN renal, greater than 100 µM. Besides, the TGI in the experiment on CAKI-1 renal was greater than 100 µM.

(Values after PubChem BioAssay (NCI).)
